The results in this text go back to patent publication US6100280A, “Narcotic antagonist” (Pola Chemical Industries, Inc., priority 1995, dated 2000).

Each structure is given as a SMILES string.

T2 sequence (P23977 whole entry): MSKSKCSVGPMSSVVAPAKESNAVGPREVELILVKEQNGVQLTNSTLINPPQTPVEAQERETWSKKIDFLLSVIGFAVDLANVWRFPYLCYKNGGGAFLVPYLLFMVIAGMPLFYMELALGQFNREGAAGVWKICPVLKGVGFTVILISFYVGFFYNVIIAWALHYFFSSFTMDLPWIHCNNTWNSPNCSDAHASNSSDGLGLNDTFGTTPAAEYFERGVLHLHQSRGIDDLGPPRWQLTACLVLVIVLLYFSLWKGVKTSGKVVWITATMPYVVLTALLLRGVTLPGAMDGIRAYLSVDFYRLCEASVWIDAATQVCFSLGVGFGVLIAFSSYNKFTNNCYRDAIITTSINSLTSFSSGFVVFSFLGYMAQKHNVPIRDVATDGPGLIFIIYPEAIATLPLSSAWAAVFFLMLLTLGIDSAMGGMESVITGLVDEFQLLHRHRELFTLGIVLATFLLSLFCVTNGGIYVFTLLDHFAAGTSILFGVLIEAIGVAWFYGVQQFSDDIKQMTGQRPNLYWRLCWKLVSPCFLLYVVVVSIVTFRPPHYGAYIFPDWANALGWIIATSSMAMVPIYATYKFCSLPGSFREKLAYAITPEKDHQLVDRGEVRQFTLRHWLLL

For one test, the target named is T1, narcotic receptors (cocaine derivative [^3 H]WIN35,428 binding, striatum) (Rattus norvegicus, UniProt P23977).
T1 construct: from tissue; host or cells: striatum of male Wistar rats, crude membranes
T1 sequence (P23977 whole entry): as above
Kind of test: Ex vivo binding inhibition assay ([^3 H]WIN35,428, striatum after intraperitoneal administration). It counts as in vivo, male Wistar rats. As to conditions: 30 mg/kg intraperitoneally, 30 minutes after administration, [^3 H]WIN35,428 0.5 nM; control (saline) 0%. As to the method:
Ex vivo binding inhibition assay
To each male Wistar rat, 30 mg/kg of compound 15 was intraperitoneally administered. Thirty minutes after administration, rats were decapitated. From each rat, striatum was immediately removed, and its wet weight was measured. The tissue of striatum was homogenized using a polytron together with a 10-fold amount of 50 mM Tris-HCl buffer (pH 7.4) while being cooled on ice. The homogenate was centrifugally separated (20,000 G, 20 minutes, 4° C.), and the resulting pellet was suspended in a mixture of a 20-fold amount (based on the original tissue weight) of 50 mM Tris-HCl and 100 mM NaCl buffer (pH 7.4).
The contents were allowed to react for 2 hours on ice (0-4° C.). Reaction was terminated by passing the contents through a glass filter (GF/B, product of Whatman) which had been immersed in 0.1% BSA solution for at least 40 minutes in advance while aspiration was carried out using a cell harvester, followed by washing three times with 5 ml of 50 mM Tris HCl buffer (pH 7.4). The filter and 10 ml of aquazol 2 (product of NEN) were placed in a vial and allowed to stand overnight. Radioactivity was measured using a liquid scintillation counter. […] Specific binding amounts were determined by subtracting the nonspecific binding amounts from the total binding amounts. Control accounts for the sole use of a saline solution administered to rats intraperitoneally. […]
`OC(CNc1ccccc1)CN1CCN(CCCC(c2ccc(F)cc2)c2ccc(F)cc2)CC1` (single isomer, unassigned) [Compound 15, (--)-1-[4,4-bis(4-fluorophenyl)butyl]-4-(2-hydroxy-3-phenylaminopropyl)-piperazine.2HCl]: the binding inhibitory ratio is on record as 86.1%.

A further test addresses T2, (cocaine derivative [^3 H]WIN35,428 binding, striatum) (Rattus norvegicus, UniProt P23977).
T2 construct: from tissue; host or cells: striatum of male Wistar rats, crude membranes
Kind of test: In vitro binding inhibition assay against a cocaine derivative ([^3 H]WIN35,428), striatum crude membrane. The arrangement: species or system male Wistar rats. Conditions: [^3 H]WIN35,428 0.5 nM, 2 hours on ice (0-4° C.), pH 7.4, Hill plotting, read-out: 50% Inhibition concentration. As to the method:
Male Wistar rats were decapitated. From each rat, striatum was immediately removed, and its wet weight was measured. The tissue of striatum was homogenized using a polytron together with a 10-fold amount of 50 mM Tris-HCl buffer (pH 7.4) while being cooled on ice. The homogenate was centrifugally separated (38,700 G, 20 minutes, 4° C.), and the resulting pellet was suspended in a mixture of a 40-fold amount (based on the original tissue weight) of 50 mM Tris-HCl and 100 mM NaCl buffer (pH 7.4).
The contents were allowed to react for 2 hours on ice (0-4° C.). Reaction was terminated by passing the contents through a glass filter (GF/B, product of Whatman) which had been immersed in 0.1% BSA solution for at least 40 minutes in advance while aspiration was carried out using a cell harvester, followed by washing three times with 5 ml of 50 mM Tris HCl buffer (pH 7.4). The filter and 10 ml of aquazol 2 (product of NEN) were placed in a vial and allowed to stand overnight. Radioactivity was measured using a liquid scintillation counter. […] Specific binding amounts were determined by subtracting the nonspecific binding amounts from the total binding amounts. Fifty(50)% inhibition concentrations were calculated using Hill plotting.
Take `OC(CNc1ccccc1)CN1CCN(CC(c2ccccc2)c2ccccc2)CC1` (stereo not shown) [Compound 19, 1-[2,2-diphenylethyl)-4-(2-hydroxy-3-phenylamino-propyl)piperazine.2HCl]: the IC50 is 72.2 nM. As to `OC(CNc1ccccc1)CN1CCN(CCCC(c2ccc(F)cc2)c2ccc(F)cc2)CC1` (single isomer, unassigned) [Compound 15, (--)-1-[4,4-bis(4-fluorophenyl)butyl]-4-(2-hydroxy-3-phenylaminopropyl)-piperazine.2HCl], the IC50 worked out at 37.6 nM. For `COC(CNc1ccccc1)CN1CCN(CCCC(c2ccc(F)cc2)c2ccc(F)cc2)CC1` (stereo not shown) [Compound 8, 1-[4,4-bis(4-fluorophenyl)-butyl]-4-(2-methoxy-3-phenylaminopropyl)piperazine.2HCl], the IC50 came to 23.7 nM.

As to `CN(CC(O)CN1CCN(CCCC(c2ccc(F)cc2)c2ccc(F)cc2)CC1)c1ccccc1` (stereo not shown) [Compound 6, 1-[4,4-bis(4-fluorophenyl)-butyl]-4-[2-hydroxy-3-(N-methyl-N-phenylamino)-propyl]piperazine.2C4H4O4], the IC50 turned out to be 34.9 nM. The same measure, in the same setting: next, `O=[N+]([O-])c1ccc(NCC(O)CN2CCN(CCCC(c3ccc(F)cc3)c3ccc(F)cc3)CC2)cc1` (stereo not shown) [Compound 20, 1-[4,4-bis(4-fluorophenyl)butyl]-4-[2-hydroxy-3-(4-nitrophenylamino)propyl]-piperazine.2HCl]: 55.8 nM; `CC(=O)OC(CNc1ccccc1)CN1CCN(CCCC(c2ccc(F)cc2)c2ccc(F)cc2)CC1` (stereo not drawn) [Compound 7, l-(2-acetoxy-3-phenylamino-propyl)-4-[4,4-bis(4-fluorophenyl)butyl]piperazine.2C4H4O4]: 41.2 nM. `COc1ccc(NCC(O)CN2CCN(CCCC(c3ccc(F)cc3)c3ccc(F)cc3)CC2)cc1` (stereo not shown) [Compound 13, 1-[4,4-bis(4-fluorophenyl)-butyl]-4-[2-hydroxy-3-(4-methoxyphenylamino)propyl]-piperazine.2HCl]: the IC50 is 105 nM. For `Nc1ccc(NCC(O)CN2CCN(CCCC(c3ccc(F)cc3)c3ccc(F)cc3)CC2)cc1` (stereo not shown) [Compound 23, 1-[3-(4-aminophenylamino)-2-hydroxypropyl]-4-[4,4-bis(4-fluorophenyl)butyl]-piperazine.3C4H4O4], the IC50 amounted to 534 nM. Turning to `OC(CNc1ccccc1)CN1CCN(CCCC(c2ccc(F)cc2)c2ccc(F)cc2)CC1` (stereo not shown) [Compound 1, 1-[4,4-bis(4-fluorophenyl)-butyl]-4-(2-hydroxy-3-phenylaminopropyl)piperazine.2HCl], the IC50 is 44.8 nM. Take `OC(CNc1ccccc1)CN1CCN(C(c2ccc(F)cc2)c2ccc(F)cc2)CC1` (stereo not shown) [Compound 2, 1-[bis(4-fluorophenyl)-methyl]-4-[2-hydroxy-3-phenylaminopropyl)-piperazine.2HCl]: the IC50 amounted to 51.6 nM. Take `CC(=O)N(CC(O)CN1CCN(CCCC(c2ccc(F)cc2)c2ccc(F)cc2)CC1)c1ccccc1` (stereo not shown) [Compound 4]: the IC50 amounted to 49.5 nM.

On to `COc1cc(NCC(O)CN2CCN(CCCC(c3ccc(F)cc3)c3ccc(F)cc3)CC2)cc(OC)c1OC` (stereo not shown) [Compound 11, 1-[4,4-bis(4-fluorophenyl)-butyl]-4-[2-hydroxy-3-(3,4,5-trimethoxyphenylamino)-propyl]piperazine.2C4H4O4], for which the IC50 stood at 197 nM.

As for `OC(CNc1ccc(F)cc1)CN1CCN(CCCC(c2ccc(F)cc2)c2ccc(F)cc2)CC1` (stereo not shown) [Compound 9, 1-[4,4-bis(4-fluorophenyl)-butyl]-4-[3-(4-fluorophenylamino)-2-hydroxypropyl]-piperazine.2HCl], the IC50 came to 46.8 nM. For the compound `COC(=O)[C@H]1[C@@H](c2ccccc2)C[C@@H]2CC[C@H]1N2C` [WIN35,065-2, reference compound], the IC50 was found to be 118 nM. Regarding `OC(CNc1ccccc1)CN1CCN(CCCCC(c2ccc(F)cc2)c2ccc(F)cc2)CC1` (stereo not shown) [Compound 21, 1-[5,5-bis(4-flurophenyl)-pentyl]-4-(2-hydroxy-3-phenylaminopropyl)piperazine.2HCl], the IC50 was 41.2 nM.

For `OC(CNc1ccncc1)CN1CCN(CCCC(c2ccc(F)cc2)c2ccc(F)cc2)CC1` (stereo not shown) [Compound 17, 1-[4,4-bis(4-fluorophenyl)-butyl)-4-[2-hydroxy-3-(4-pyridylamino)propyl]-piperazine.2C4H4O4], the IC50 came to 45 nM. In the case of `OC(CNc1ccccc1)CN1CCN(CCC(c2ccc(F)cc2)c2ccc(F)cc2)CC1` (stereo not shown) [Compound 18, 1-[3,3-bis(4-fluorophenyl)-propyl]-4-[2-hydroxy-3-phenylaminopropyl)piperazine], the IC50 was 15 nM. Same read-out and setting: next, `CC(C)(C)c1cc(NCC(O)CN2CCN(CCCC(c3ccc(F)cc3)c3ccc(F)cc3)CC2)cc(C(C)(C)C)c1O` (stereo not shown) [Compound 22, 1-[4,4-bis(4-flurophenyl)-butyl]-4-[3-(3,5-di-tert-butyl-4-hydroxyphenylamino)-2-hydroxypropyl]piperazine..3C4H4O4]: 306 nM; `Oc1ccc(NCC(O)CN2CCN(CCCC(c3ccc(F)cc3)c3ccc(F)cc3)CC2)cc1` (stereo not shown) [Compound 25, 1-[4,4-bis(4-flurophenyl)-butyl]-4-[2-hydroxy-3-(4-hydroxyphenylamino)propyl]-piperazine.2C4H4O4]: 23.7 nM; `OC(CNc1ccccc1)CN1CCN(CCCC(c2ccc(F)cc2)c2ccc(F)cc2)CC1` (single isomer, unassigned; (+)) [Compound 16, (+)-1-[4,4-bis(4-fluorophenyl)butyl)-4-(2-hydroxy-3-phenylaminopropyl)-piperazine.2HCl]: 52.6 nM.

Take `OC(CNCc1ccccc1)CN1CCN(CCCC(c2ccc(F)cc2)c2ccc(F)cc2)CC1` (stereo not shown) [Compound 3, 1-[4,4-bis(4-fluorophenyl)-butyl]-4-(2-hydroxy-3-benzylaminopropyl)-piperazine.2HCl]: the IC50 worked out at 31.7 nM.
